Measured values as given in patent publication US20260102387A1, “IMMUNOSUPPRESSIVE COMPOUNDS” (UNIVERSITÄT BASEL, priority 2022, published 2026).
Like-named read-outs stand apart in the source and are kept apart here.

Experiments:
coronin 1 promoter [1] = assay: Fluorescence-based screening assay: coronin 1 promoter driven GFP in RBL cells (microplate reader / microscopy); type: cell-based; settings: RBL; 5 μg/ml, 48 h, microplate reader, DMSO = 100; read-out: GFP values (%)
Experimental: The murine coronin 1 promoter sequences of SEQ ID NO: 1-6 were each cloned into a plasmid lacking a promoter (promoterless) but containing a destabilized Green Fluorescence Protein (GFP) cassette. Rat Basophil Leukemia (RBL) cells were transfected with the plasmids, stable GFP expressing cells were enriched, incubated with various compounds and assessed for coronin 1 promoter inhibition by assessing green fluorescence values (FIG. 2).
The plasmids were independently transfected into immune cells (Rat basophil Leukemia, RBL cells) to generate green and red fluorescent RBL cells that were subsequently enriched by means of flow cytometry. These cells were then mixed in equal ratio (1:1) and incubated in a 96 well plate at 100,000 cells/well in a volume of 200 μl of phenol red free RPMI supplemented with 8% fetal calf serum, L-glutamate and antibiotics (penicillin, […]) from available chemical libraries. At defined time points (8 h, 24 h and 48 h), the GFP and RFP fluorescence was measured using a 96 well microplate reader (Synergy, BioTek Instruments). […] Selected compounds show different levels of modulation of coronin 1 promoter driven GFP and CMV promoter driven RFP fluorescence. GFP and RFP fluorescence were analyzed with a microplate reader upon incubation with the top coronin 1 promoter inhibiting compounds. Shown are percentage of GFP reduction (left column) and percentage of RFP reduction (right column) for the compounds at 5 μg/ml concentration at 48 h. Cycloheximide (CHX) serves as positive control whereas media and DMSO serve as negative controls. […] Cells were imaged using a fluorescence microscope to validate fluorescence inhibition (FIG. 3A) and as well assess morphology and viability (in addition to GFP down regulation confirmation). In addition, quantitative Polymerase Chain Reaction (qPCR) for coronin 1 mRNA transcripts reveal reduction with compound 11 (FIG. 3B). The primers used for the qPCR on RBL cells are listed below as follows;

[2] = tested on: early cytomegalovirus promoter; assay: Screening assay control: CMV promoter driven RFP in RBL cells (microplate reader); type: cell-based; settings: 5 μg/ml, 48 h, microplate reader, DMSO = 100, read-out: RFP values (%)
Experimental: As an unrelated promoter, the early cytomegaloviral promoter element was cloned into a promoterless Red Fluorescence Protein (RFP) expression plasmid. Rat Basophil Leukemia (RBL) cells were transfected with the plasmid, stable RFP expressing cells enriched, incubated with various compounds and were assessed for red fluorescence values. Analyzing the inhibition of an unrelated promoter (in this case, early cytomegalovirus promoter) that drove Red Fluorescence Protein (RFP) expression assessed non-specificity of the compound under analysis.
The plasmids were independently transfected into immune cells (Rat basophil Leukemia, RBL cells) to generate green and red fluorescent RBL cells that were subsequently enriched by means of flow cytometry. These cells were then mixed in equal ratio (1:1) and incubated in a 96 well plate at 100,000 cells/well in a volume of 200 μl of phenol red free RPMI supplemented with 8% fetal calf serum, L-glutamate and antibiotics (penicillin, streptomycin) and various compounds (3 and 5 μg/ml concentrations) from available chemical libraries. At defined time points (8 h, 24 h and 48 h), the GFP and RFP fluorescence was measured using a 96 well microplate reader (Synergy, BioTek Instruments). […] Selected compounds show different levels of modulation of coronin 1 promoter driven GFP and CMV promoter driven RFP fluorescence. GFP and RFP fluorescence were analyzed with a microplate reader upon incubation with the top coronin 1 promoter inhibiting compounds. Shown are percentage of GFP reduction (left column) and percentage of RFP reduction (right column) for the compounds at 5 μg/ml concentration at 48 h. Cycloheximide (CHX) serves as positive control whereas media and DMSO serve as negative controls. […] Cells were imaged using a fluorescence microscope to validate fluorescence inhibition (FIG. 3A) and as well assess morphology and viability (in addition to GFP down regulation confirmation). In addition, quantitative Polymerase Chain Reaction (qPCR) for coronin 1 mRNA transcripts reveal reduction with compound 11 (FIG. 3B). The primers used for the qPCR on RBL cells are listed below as follows;

coronin 1 promoter [3] = assay: EC50 analysis for coronin 1 promoter driven GFP inhibition by flow cytometry in RBL cells; type: cell-based; settings: RBL cells, 48-65 h, flow cytometry
Experimental: RBL cells that had been incubated with the indicated calcium channel blockers (amlodipine (3.125 μM) and verapamil (8 μM) concentrations for 48 h were analyzed by flow cytometry for any alteration in coronin 1 promoter driven GFP fluorescence. The results reveal no effect of calcium channel blockers on coronin 1 promoter activity (FIG. 4).
(§1) RBL cells expressing GFP under coronin 1 promoter and optionally with RBL cells expressing RFP under CMV promoter were mixed in equal numbers and incubated with the compounds at indicated concentrations for 48-65 h and analyzed by flow cytometry for alteration in coronin 1 promoter (GFP fluorescence), CMV promoter (RFP fluorescence) values. In addition, the cells were labelled with live-dead marker for assessing cell viability status by flow cytometry. Cycloheximide (CHX) serves as positive control and DMSO serves as negative controls. Effective Concentration (EC50) values for coronin 1 promoter inhibition via GFP fluorescence analysis, non-specific promoter inhibition via CMV promoter driven-RFP fluorescence analysis and cell viability via live/dead staining as a measure for toxicity in flow cytometry for compounds (10-22 and 50a-65a) are shown in Table 6 and Table 7. Based on the EC50 analysis of the inhibition of coronin 1 promoter driven GFP fluorescence the (4S,7R)-configurated eutomers were identified (Structures FIG. 9A-C). This is exemplified for compounds containing two stereocenters by eutomers 11c and 13a. […] Subsequent EC50 evaluations (Table 7) were performed with compound 13a as standard for relative potency normalized to a value of 1.00 (relative potency calculated as [EC50 GFP inhibition 13a]/[EC50 GFP inhibition compound of interest]).

RBL cells = assay: Cell viability by live-dead staining (cytotoxicity), flow cytometry; type: cell-based, Rat; settings: cell viability via live/dead staining, 48-65 h, read-out: EC50 Toxicity
Experimental: as §1

Row | SMILES | EC50 (coronin 1 promoter [3]; RBL) | EC50 (RBL cells; Rattus norvegicus, RBL) | further results
1 | CCSCCOC(=O)C1=C(C)NC2=C(C(=O)CC(c3ccccc3OC)C2)C1c1ccsc1 (stereo not drawn) [Comp. 3, 2-(ethylthio)ethyl-7-(2-methoxyphenyl)-2-methyl-5-oxo-4-(3-thienyl)-1,4,5,6,7,8-hexahydro-3-quinolinecarboxylate] | – | – | activity at 5 µg/mL (coronin 1 promoter [1]): 63%; activity at 5 µg/mL [2]: 80%
2 | CC1=C(C(=O)OCC2CCCO2)C(c2ccsc2)C2=C(C[C@@H](c3cccs3)CC2=O)N1 (mixture of isomers) [Comp. 7, tetrahydro-2-furanylmethyl-2-methyl-5-oxo-7-(2-thienyl)-4-(3-thienyl)-1,4,5,6,7,8-hexahydro-3-quinolinecarboxylate] | – | – | activity at 5 µg/mL (coronin 1 promoter [1]): 77%; activity at 5 µg/mL [2]: 95%
3 | COc1ccccc1C1CC(=O)C2=C(C1)NC(C)=C(C(=O)OC1COC1)C2c1cccc(O)c1 (stereo not drawn) [compound 20, oxetan-3-yl 4-(3-hydroxyphenyl)-7-(2-methoxyphenyl)-2-methyl-5-oxo-1,4,5,6,7,8-hexahydroquinoline-3-carboxylate] | 500 nM | > 2500 nM | –
4 | COC(=O)C1=C(C)NC2=C(C(=O)CC(c3ccccc3OC)C2)C1c1cccc(OC)c1 (stereo not drawn) [compound 15, methyl 7-(2-methoxyphenyl)-4-(3-methoxyphenyl)-2-methyl-5-oxo-1,4,5,6,7,8-hexahydroquinoline-3-carboxylate] | 1200 nM | > 15000 nM | –
5 | COC(=O)C1=C(C)NC2=C(C(=O)CC(c3cccs3)C2)C1c1cccc(O)c1 (stereo not drawn) [Comp. 5, methyl-4-(3-hydroxyphenyl)-2-methyl-5-oxo-7-(2-thienyl)-1,4,5,6,7,8-hexahydro-3-quinolinecarboxylate] | – | – | activity at 5 µg/mL (coronin 1 promoter [1]): 74%; activity at 5 µg/mL [2]: 108%
6 | COc1ccccc1[C@H]1CC(=O)C2=C(C1)NC(C)=C(C(=O)OCC1CCCO1)[C@H]2c1cccc(O)c1 (stereo in doubt) [12a, tetrahydro-2-furanylmethyl-4-(3-hydroxyphenyl)-7-(2-methoxyphenyl)-2-methyl-5-oxo-1,4,5,6,7,8-hexahydro-3-quinolinecarboxylate] | 200 nM | > 30000 nM | –
7 | COC(=O)C1=C(C)NC2=C(C(=O)CC(c3ccccc3OC)C2)C1c1cccs1 (stereo not drawn) [Comp. 9, methyl-7-(2-methoxyphenyl)-2-methyl-5-oxo-4-(2-thienyl)-1,4,5,6,7,8-hexahydro-3-quinolinecarboxylate] | – | – | activity at 5 µg/mL (coronin 1 promoter [1]): 58%; activity at 5 µg/mL [2]: 97%
8 | COc1ccccc1C1CC(=O)C2=C(C1)NC(C)=C(C(=O)OC(C)(C)C)C2c1cccc(O)c1 (stereo not drawn) [compound 21, tert-butyl 4-(3-hydroxyphenyl)-7-(2-methoxyphenyl)-2-methyl-5-oxo-1,4,5,6,7,8-hexahydroquinoline-3-carboxylate] | 280 nM | > 2500 nM | –
9 | COC(=O)C1=C(C)NC2=C(C(=O)CC(c3ccccc3OC)C2)C1c1ccccc1 (stereo not drawn) [compound 14, methyl 7-(2-methoxyphenyl)-2-methyl-5-oxo-4-phenyl-1,4,5,6,7,8-hexahydroquinoline-3-carboxylate] | 250 nM | > 6000 nM | –
10 | COc1ccccc1[C@@H]1CC(=O)C2=C(C1)NC(C)=C(C(=O)OC[C@@H]1CCCO1)[C@@H]2c1cccc(O)c1 [12f, tetrahydro-2-furanylmethyl-4-(3-hydroxyphenyl)-7-(2-methoxyphenyl)-2-methyl-5-oxo-1,4,5,6,7,8-hexahydro-3-quinolinecarboxylate] | 2500 nM | > 2000 nM | –
11 | COc1ccccc1[C@H]1CC(=O)C2=C(C1)NC(C)=C(C(=O)OCC1CCCO1)[C@@H]2c1cccc(O)c1 (stereo in doubt) [12b, tetrahydro-2-furanylmethyl-4-(3-hydroxyphenyl)-7-(2-methoxyphenyl)-2-methyl-5-oxo-1,4,5,6,7,8-hexahydro-3-quinolinecarboxylate] | > 30000 nM | > 30000 nM | –
12 | COC(=O)C1=C(C)NC2=C(C(=O)CC(c3ccccc3OC)C2)C1c1ccccc1O (stereo not drawn) [compound 16, methyl 4-(2-hydroxyphenyl)-7-(2-methoxyphenyl)-2-methyl-5-oxo-1,4,5,6,7,8-hexahydroquinoline-3-carboxylate] | 900 nM | > 7500 nM | –
13 | COC(=O)C1=C(C)NC2=C(C(=O)C[C@@H](c3ccccc3OC)C2)[C@H]1c1cccc(O)c1 [11d, methyl-4-(3-hydroxyphenyl)-7-(2-methoxyphenyl)-2-methyl-5-oxo-1,4,5,6,7,8-hexahydro-3-quinolinecarboxylate] | 2000 nM | > 18000 nM | –
14 | COC(=O)C1=C(C)NC2=C(C(=O)C[C@H](c3ccccc3OC)C2)[C@@H]1c1cccc(O)c1 (stereo in doubt) [11a, methyl-4-(3-hydroxyphenyl)-7-(2-methoxyphenyl)-2-methyl-5-oxo-1,4,5,6,7,8-hexahydro-3-quinolinecarboxylate] | – | > 9000 nM | EC50 (coronin 1 promoter [3]): 500 nM
15 | COCCCCOC(=O)C1=C(C)NC2=C(C(=O)CC(c3ccccc3OC)C2)C1c1cccc(O)c1 (stereo not drawn) [compound 17, 4-methoxybutyl 4-(3-hydroxyphenyl)-7-(2-methoxyphenyl)-2-methyl-5-oxo-1,4,5,6,7,8-hexahydroquinoline-3-carboxylate] | 100 nM | > 5000 nM | –
16 | COc1ccccc1[C@H]1CC(=O)C2=C(C1)NC(C)=C(C(=O)OC[C@@H]1CCCO1)[C@H]2c1cccc(O)c1 (racemic) [12c, tetrahydro-2-furanylmethyl-4-(3-hydroxyphenyl)-7-(2-methoxyphenyl)-2-methyl-5-oxo-1,4,5,6,7,8-hexahydro-3-quinolinecarboxylate] | 200 nM | > 4000 nM | –
17 | COC(=O)C1=C(C)NC2=C(C(=O)C[C@H](c3ccccc3OC)C2)[C@@H]1c1cccc(O)c1 [11c, methyl (4S, 7R)-4-(3-hydroxyphenyl)-7-(2-methoxyphenyl)-2-methyl-5-oxo-1,4,5,6,7,8-hexahydro-3-quinolinecarboxylate] | – | – | EC50 (coronin 1 promoter [3]): 175 nM; EC50 (RBL cells): > 9000 nM
18 | COc1ccccc1C1CC(=O)C2=C(C1)NC(C)=C(C(=O)OCC1CC(C)(C)OC(C)(C)C1)C2c1cccc(O)c1 (stereo not drawn) [compound 19, (2,2,6,6-tetramethyltetrahydro-2H-pyran-4-yl)methyl 4-(3-hydroxyphenyl)-7-(2-methoxyphenyl)-2-methyl-5-oxo-1,4,5,6,7,8-hexahydroquinoline-3-carboxylate] | 160 nM | > 2500 nM | –
